Source: patent US5332818A, “Immunosuppressive agent and process of producing the same” (Toray Industries, Inc., priority 1989, dated 1994)

System: mouse spleen cells
Assay: Suppression of mitogen (ConA) reaction
Assay type: cell-based, C57BL/6 mouse
Settings: 48 hours, 3 cases, read-out: Suppression Rate of Mitogen Reaction; for inhibition at 1 µg/mL: 1 μg/ml; for inhibition at 10 µg/mL: 10 μg/ml; for inhibition at 50 µg/mL: 50 μg/ml
Procedure: If mouse spleen cells are cultured in vitro in the presence of concanavalin A (hereinafter referred to as "ConA" for short), the cells are divided and proliferated (mitogen reaction). In this system, the immunosuppressive agent of the present invention or cyclosporin A as a comparative example was added to the culture medium and the effects to the mitogen reaction were examined.
More particularly, C57BL/6 mouse was sacrificed and the spleen was removed. The spleen cells were suspended in RPMI 1640 culture medium containing 10% fetal calf serum (hereinafter referred to as "RPMI 1640" for short) so as to prepare a spleen cell suspension (5×10^6 cells/ml). In the wells of a flat-bottomed 96-well microplate, 100 μl of the suspension was placed and then 50 μl of RPMI 1640 containing ConA (4 μg/ml) as well as 50 μl of RPMI 1640 containing the test compound in the concentration shown in Table 2 were added. The cells were cultured for 48 hours (37° C. 5%CO2) As a control, 50 μl of RPMI 1640 was added. Eight hours before the termination of the culture, 2 μ Ci of [^3 H] thymidine was […], added. After termination of the culture, the cells were collected on a filter paper by using a cell harvester. After drying the filter paper, the filter paper was placed in a vial containing toluene-based scintillator and the radioactivity was measured by a liquid scintillation counter.
The suppression rate of mitogen reaction was calculated according to the following equation: [formula]

Compound	inhibition at 1 µg/mL [%]	inhibition at 10 µg/mL [%]	inhibition at 50 µg/mL [%]
C=CCN1CC[C@]23c4c5ccc(O)c4O[C@H]2c2c(c4ccccc4n2C)C[C@@]3(O)[C@H]1C5 [allyl OH H NMe H H]	13	50	100
O=[N+]([O-])c1cccc2c3c([nH]c12)[C@@H]1Oc2c(O)ccc4c2[C@@]12CCN(CC1CC1)[C@H](C4)[C@]2(O)C3 [cyclopropylmethyl OH H NH 7'-NO2 H]	5	55	100
CC(=O)Oc1ccc2c3c1O[C@H]1c4[nH]c5ccccc5c4C[C@@]4(OC(C)=O)[C@@H](C2)N(CC2CC2)CC[C@]314 [cyclopropylmethyl OAc Ac NH H H]	4	55	100
Oc1ccc2c3c1O[C@H]1c4nc5ccccc5cc4C[C@@]4(O)[C@@H](C2)N(CC2CC2)CC[C@]314 [cyclopropylmethyl OH H CH H H]	15	43	75
C=CCN1CC[C@]23c4c5ccc(OC)c4O[C@H]2c2[nH]c4ccccc4c2C[C@@]3(O)[C@H]1C5 [allyl OH Me NH H H]	17	32	100
C=CCN1CC[C@]23c4c5ccc(O)c4O[C@H]2c2[nH]c4c(Cl)cccc4c2C[C@@]3(O)[C@H]1C5 [allyl OH H NH 7'-Cl H]	17	50	100
C=CCN1CC[C@]23c4c5ccc(O)c4O[C@H]2c2[nH]c4ccc(C)cc4c2C[C@@]3(O)[C@H]1C5 [allyl OH H NH 5'-Me H, 5'-methylnaloxindole]	22	45	100
Oc1ccc2c3c1O[C@H]1c4[nH]c5ccc6ccccc6c5c4C[C@@]4(O)[C@@H](C2)N(CC2CC2)CC[C@]314 [cyclopropylmethyl OH H NH 4',5'-benzo]	2	30	88
CC(=O)O[C@@]12Cc3c([nH]c4ccccc34)[C@@H]3Oc4c(O)ccc5c4[C@@]31CCN(CC1CC1)[C@@H]2C5 [cyclopropylmethyl OAc H NH H H]	2	70	100
Cn1c2c(c3ccccc31)C[C@@]1(O)[C@H]3Cc4ccc(O)c5c4[C@@]1(CCN3CC1CC1)[C@H]2O5 [cyclopropylmethyl OH H NMe H H]	15	69	100
Cc1ccc2[nH]c3c(c2c1)C[C@@]1(O)[C@H]2Cc4ccc(O)c5c4[C@@]1(CCN2CC1CC1)[C@H]3O5 [cyclopropylmethyl OH H NH 5'-Me H]	8	34	100
Oc1ccc2c3c1O[C@H]1c4nc5ccccc5nc4C[C@@]4(O)[C@@H](C2)N(CC2CC2)CC[C@]314 [cyclopropylmethyl OH H N H H]	10	34	55
Oc1ccc2c3c1O[C@H]1c4[nH]c5ccc(Cl)cc5c4C[C@@]4(O)[C@@H](C2)N(CC2CC2)CC[C@]314 [cyclopropylmethyl OH H NH 5'-Cl H]	12	37	100
COc1ccc2c3c1O[C@H]1c4[nH]c5ccccc5c4C[C@@]4(O)[C@@H](C2)N(CC2CC2)CC[C@]314 [cyclopropylmethyl OH Me NH H H]	9	65	100
Cc1ccc2c3c([nH]c2c1)[C@@H]1Oc2c(O)ccc4c2[C@@]12CCN(CC1CC1)[C@H](C4)[C@]2(O)C3 [cyclopropylmethyl OH H NH 6'-Me H]	0	28	100
Oc1ccc2c3c1O[C@H]1c4[nH]c5ccc(Br)cc5c4C[C@@]4(O)[C@@H](C2)N(CC2CC2)CC[C@]314 [cyclopropylmethyl OH H NH 5'-Br H]	7	40	100
C=CCN1CC[C@]23c4c5ccc(O)c4O[C@H]2c2oc4ccccc4c2C[C@@]3(O)[C@H]1C5 [allyl OH H O H H]	6	45	100
CN1CC[C@]23c4c5ccc(O)c4O[C@H]2c2[nH]c4ccccc4c2C[C@H]3[C@H]1C5 [Me H H NH H H]	0	12	52
Oc1ccc2c3c1O[C@H]1c4[nH]c5c(Cl)cccc5c4C[C@@]4(O)[C@@H](C2)N(CC2CC2)CC[C@]314 [cyclopropylmethyl OH H NH 7'-Cl H]	15	75	100
Oc1ccc2c3c1O[C@H]1c4[nH]c5c(F)cccc5c4C[C@@]4(O)[C@@H](C2)N(CC2CC2)CC[C@]314 [cyclopropylmethyl OH H NH 7'-F H]	15	61	100
C=CCN1CC[C@]23c4c5ccc(OC(C)=O)c4O[C@H]2c2[nH]c4ccccc4c2C[C@@]3(OC(C)=O)[C@H]1C5 [allyl OAc Ac NH H H]	2	40	100
